Experimental data as given in ChEMBL document CHEMBL6083247, “Discovery of sulfone containing metallo-β-lactamase inhibitors with reduced bacterial cell efflux and histamine release issues” (Bioorg Med Chem Lett, 2024).

Assays:
[1] = tested on: Klebsiella pneumoniae; assay: Antibacterial activity against VIM-1 expressing Klebsiella pneumoniae IHMA599644 assessed as inhibition of bacterial growth in presence of IMI by absorbance based assay; type: functional
[2] = Inhibition of Metallo-beta-lactamase VIM-1 (unknown origin); parameters: species or system Bacteria
[3] = Inhibition of Metallo-beta-lactamase VIM-2 (unknown origin); parameters: species or system Bacteria
[4] = Inhibition of Metallo-beta-lactamase IMP-1 (unknown origin); parameters: species or system Bacteria
[5] = tested on: Pseudomonas aeruginosa; assay: Antibacterial activity against wildtype isogenic efflux/IMP-1 expressing Pseudomonas aeruginosa MB9798 assessed as inhibition of bacterial growth in presence of IMI by absorbance based assay; type: functional
[6] = Efflux ratio of MITC95 for antibacterial activity against wildtype isogenic efflux/IMP-1 expressing Pseudomonas aeruginosa MB9798 assessed as inhibition of bacterial growth in presence of IMI to MITC95 for antibacterial activity against mutant isogenic efflux/IMP-1 expressing Pseudomonas aeruginosa MB9799 assessed as inhibition of bacterial growth in presence of IMI; type: functional
[7] = tested on: Pseudomonas aeruginosa; assay: Antibacterial activity against mutant isogenic efflux/IMP-1 expressing Pseudomonas aeruginosa MB9799 assessed as inhibition of bacterial growth in presence of IMI by absorbance based assay; type: functional
[8] = tested on: Serratia marcescens; assay: Antibacterial activity against IMP-1 expressing Serratia marcescens CL5741 assessed as inhibition of bacterial growth in presence of IMI by absorbance based assay; type: functional
[9] = tested on: Escherichia coli; assay: Antibacterial activity against NDM-1 expressing Escherichia coli CLB30016 assessed as inhibition of bacterial growth in presence of IMI by absorbance based assay; type: functional
[10] = AUC in rhesus monkey at 1 mg/kg, iv; type: ADME, organism-based, Macaca mulatta; settings: in vivo
[11] = Unbound fraction in rhesus monkey plasma at 1 mg/kg, iv; type: ADME, organism-based, Macaca mulatta
[12] = Clearance in rhesus monkey at 1 mg/kg, iv; type: ADME, organism-based, Macaca mulatta; settings: in vivo
[13] = Toxicity in rhesus monkey assessed as adverse effects at 1 mg/kg, iv measured after 24 hrs; type: organism-based, Macaca mulatta; settings: in vivo
[14] = Cmax in rat at 1 mg/kg, iv; type: ADME, organism-based; settings: in vivo
[15] = Volume of distribution at steady state in rhesus monkey at 1 mg/kg, iv; type: ADME, organism-based, Macaca mulatta; settings: in vivo, read-out: Vdss
[16] = Cmax in rhesus monkey at 1 mg/kg, iv; type: ADME, organism-based, Macaca mulatta; settings: in vivo
[17] = Toxicity in rat mast cells assessed as degranulation by measuring histamine release at 900 microM; type: cell-based; settings: mast cell
[18] = MRT in rat at 1 mg/kg, iv; type: ADME, organism-based; settings: in vivo
[19] = Toxicity in cardiovascular rat model assessed as increase in histamine release in plasma at 30 mg/kg,iv for 20 mins and measured after 20 mins of iv infusion with 100 mg/kg; type: organism-based; settings: in vivo, 40 min
[20] = Toxicity in cardiovascular rat model assessed as increase in histamine release in plasma at 100 mg/kg, iv; type: organism-based; settings: in vivo
[21] = tested on: Escherichia coli; assay: Antibacterial activity against efflux mutant Escherichia coli; type: functional, organism-based
[22] = Toxicity in cardiovascular rat model assessed as decrease in blood pressure at 30 mg/kg,iv for 20 mins and measured after 20 mins of iv infusion with 100 mg/kg; type: organism-based; settings: in vivo, 40 min
[23] = AUC in rat at 1 mg/kg, iv; type: ADME, organism-based; settings: in vivo
[24] = tested on: Staphylococcus aureus; assay: Antibacterial activity against wild type Staphylococcus aureus; type: functional, organism-based
[25] = Hemolytic activity in sheep red blood cells assessed as hemolysis; type: toxicity, cell-based, Ovis aries, Erythrocyte
[26] = Unbound fraction in rat plasma at 1 mg/kg, iv; type: ADME, organism-based
[27] = MRT in rhesus monkey at 1 mg/kg, iv; type: ADME, organism-based, Macaca mulatta; settings: in vivo
[28] = Cmax in rhesus monkey at 1 mg/kg, iv measured after 24 hrs; type: ADME, organism-based, Macaca mulatta; settings: in vivo
[29] = Cmax in rat at 100 mg/kg, iv; type: ADME, organism-based; settings: in vivo
[30] = Clearance in rat at 1 mg/kg, iv; type: ADME, organism-based; settings: in vivo
[31] = Volume of distribution at steady state in rat at 1 mg/kg, iv; type: ADME, organism-based; settings: in vivo, read-out: Vdss
[32] = target: Metallo-beta-lactamase type 2 (Bacteria, UniProt C7C422); assay: Inhibition of Metallo-beta-lactamase NDM-1 (unknown origin)
[33] = Toxicity in rat assessed as adverse effect at 4 mg/kg, iv; type: organism-based; settings: in vivo
[34] = Cmax in rat at 4 mg/kg, iv; type: ADME, organism-based; settings: in vivo
[35] = MRT in rat at 4 mg/kg, iv; type: ADME, organism-based; settings: in vivo
[36] = Volume of distribution at steady state in rat at 4 mg/kg, iv; type: ADME, organism-based; settings: in vivo, read-out: Vdss
[37] = Toxicity in rat mast cells assessed as degranulation by measuring histamine release at >=100 microM; type: cell-based; settings: mast cell
[38] = Unbound fraction in rat plasma at 4 mg/kg, iv; type: ADME, organism-based
[39] = AUC in rat at 4 mg/kg, iv; type: ADME, organism-based; settings: in vivo
[40] = Clearance in rat at 4 mg/kg, iv; type: ADME, organism-based; settings: in vivo
[41] = Toxicity in cardiovascular rat model assessed as increase in histamine release in plasma at 4 mg/kg, iv; type: organism-based; settings: in vivo

Sequence of Metallo-beta-lactamase type 2 (C7C422 whole entry): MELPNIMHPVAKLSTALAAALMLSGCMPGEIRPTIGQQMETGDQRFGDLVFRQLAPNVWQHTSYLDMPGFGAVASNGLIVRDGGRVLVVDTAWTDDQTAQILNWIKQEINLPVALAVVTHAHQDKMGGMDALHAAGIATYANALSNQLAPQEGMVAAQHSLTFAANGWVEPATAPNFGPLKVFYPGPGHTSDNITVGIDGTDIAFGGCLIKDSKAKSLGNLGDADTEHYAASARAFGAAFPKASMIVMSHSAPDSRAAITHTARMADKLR

## NS(=O)(=O)c1c([S+]([O-])C2CCNCC2)ccc(-c2ccc(C3CCNCC3)cc2)c1-c1nnn[nH]1 (centres undefined)
[1]
  MITC95: 6.25 µM
[2]
  IC50: 1.18 nM
[3]
  IC50: 1090 nM
[4]
  IC50: 5.9 nM
[5]
  MITC95: 3.1 µM
[6]
  Ratio: 2
[7]
  MITC95: 1.56 µM
[8]
  MITC95: 6.25 µM
[9]
  MITC95: 3.13 µM

## NCCS(=O)(=O)c1ccc(-c2cccc3sc(N)nc23)c(-c2nn[nH]n2)c1S(N)(=O)=O
[10]
  AUC: 10.2 µM·h
[11]
  fraction unbound: 0.23
[12]
  clearance: 3.6 mL/min/kg
[1]
  MITC95: 3.13 µM
[2]
  IC50: 0.31 nM
[13]
  Activity: Non-toxic
[3]
  IC50: 1 nM
[14]
  Cmax: 5.8 µM
[15]
  Vd: 0.39 L/kg
[16]
  Cmax: 18 µM
[17]
  Activity: Non-toxic
[18]
  MRT: 13.8 min
[19]
  Activity: Non-toxic
[20]
  Activity: Non-toxic
[21]
  IC50: > 200000 nM
[22]
  Activity: Toxic
[23]
  AUC: 1.15 µM·h
[4]
  IC50: 0.23 nM
[5]
  MITC95: 0.78 µM
[24]
  IC50: > 200000 nM
[25]
  IC50: > 200000 nM
[26]
  fraction unbound: 0.37
[27]
  MRT: 109 min
[28]
  Cmax: 18 µM
[6]
  Ratio: ~1
[29]
  Cmax: 569 µM
[30]
  clearance: 32.1 mL/min/kg
[31]
  Vd: 0.46 L/kg
[8]
  MITC95: 1.56 µM
[9]
  MITC95: 0.78 µM

## NS(=O)(=O)c1c(SC2CCNCC2)ccc(-c2ccc(C3CCNCC3)cc2)c1-c1nnn[nH]1
[1]
  MITC95: 6.25 µM
[2]
  IC50: 48.5 nM
[4]
  IC50: 35.7 nM
[5]
  MITC95: 25 µM
[6]
  Ratio: 32
[7]
  MITC95: 0.78 µM
[8]
  MITC95: 3.13 µM
[9]
  MITC95: 1.56 µM

## Cc1ccc(-c2ccc(S(=O)(=O)C3CNC3)c(S(N)(=O)=O)c2-c2nn[nH]n2)c2nc(N)[nH]c12
[1]
  MITC95: 1.56 µM
[2]
  IC50: 0.24 nM
[32]
  IC50: 0.04 nM
[4]
  IC50: 0.47 nM
[5]
  MITC95: 0.78 µM
[6]
  Ratio: 1
[7]
  MITC95: 0.78 µM
[8]
  MITC95: 0.78 µM
[9]
  MITC95: 1.56 µM

## Nc1nc2c(-c3ccc(S(=O)(=O)C4CCNCC4)c(S(N)(=O)=O)c3-c3nn[nH]n3)cccc2s1
[1]
  MITC95: 6.25 µM
[2]
  IC50: 0.26 nM
[32]
  IC50: 0.12 nM
[3]
  IC50: 0.4 nM
[4]
  IC50: 0.46 nM
[5]
  MITC95: 1.56 µM
[6]
  Ratio: 1
[7]
  MITC95: 1.56 µM
[8]
  MITC95: 3.13 µM
[9]
  MITC95: 3.13 µM

## NS(=O)(=O)c1c(S(=O)(=O)C2CCNCC2)ccc(-c2ccc(C3CCNCC3)cc2)c1-c1nnn[nH]1
[1]
  MITC95: 3.13 µM
[2]
  IC50: 0.31 nM
[3]
  IC50: 4.1 nM
[14]
  Cmax: 15.8 µM
[18]
  MRT: 46.8 min
[23]
  AUC: 8.4 µM·h
[4]
  IC50: 0.52 nM
[5]
  MITC95: 0.78 µM
[26]
  fraction unbound: 0.66
[6]
  Ratio: 1
[30]
  clearance: 3.8 mL/min/kg
[7]
  MITC95: 0.78 µM
[31]
  Vd: 0.18 L/kg
[8]
  MITC95: 3.13 µM
[9]
  MITC95: 1.56 µM

## NS(=O)(=O)c1c(S(=O)(=O)C2CNC2)ccc(-c2ccc(C3CCNCC3)cc2)c1-c1nn[nH]n1
[33]
  Activity: Non-toxic
[34]
  Cmax: 35.7 µM
[35]
  MRT: 40.2 min
[1]
  MITC95: 1.56 µM
[2]
  IC50: 0.2 nM
[36]
  Vd: 0.34 L/kg
[37]
  Activity: Toxic
[3]
  IC50: 2.8 nM
[4]
  IC50: 0.21 nM
[5]
  MITC95: 0.78 µM
[6]
  Ratio: 1
[7]
  MITC95: 0.78 µM
[38]
  fraction unbound: 0.55
[39]
  AUC: 15.6 µM·h
[40]
  clearance: 8.5 mL/min/kg
[41]
  Activity: Non-toxic
[8]
  MITC95: 1.56 µM
[9]
  MITC95: 0.78 µM
